Values after ≈ are worked out from the molar mass of the structure shown.
Assays:
[1] = test system: carmine mites; assay: Test Example 4: emulsifiable concentrate applied to mite-infested potted kidney beans; assay type: in vivo, carmine mite; conditions: 10% emulsifiable concentrate diluted 500-fold, 10 ml/pot; 10 days
Experimental: (§1) 10 parts of each of the compounds of this invention, (1), (2), (3), (4) and (5) was mixed with 15 parts of Sorpol 3005x (a registered trademark of Toho Chemical Co., Ltd.) and 75 parts of xylene, and the mixture was thoroughly stirred to provide a 10% emulsifiable concentrate.
10 to 15 female adult carmine mites were placed on each leaf of potted kidney beans (2-leaf stage) 9 days old after seeding. After standing in a constant temperature room at 27° C. for a week, a lot of mites in various growth stages were observed on the beans. Each of the emulsifiable concentrates prepared from the compounds of this invention (1) and (2) in the procedures described in Formulation Example 1 was diluted 500-fold with water and applied to the beans on a turntable at a rate of 10 ml/pot.

[2] = test system: adult green rice leafhoppers; assay: Test Example 3: dust applied to rice seedlings, mortality after 24 hours; assay type: in vivo, green rice leafhopper; conditions: 0.5% dust, 2 kg/10 ares, 200 mmHg
Experimental: 0.5 part of each of the compounds of this invention, (1), (2), (3), (4) and (5) was dissolved in 20 parts of acetone. To the solution was added 99.5 parts of 300 mesh clay, and the mixture was thoroughly stirred. The acetone was distilled off to provide a 0.5% dust.
The dusts prepared from the compounds of this invention, (1), (2), (3), (4) and (5) in the procedures described in Formulation Example 2 were applied to rice seedlings planted in each 3 inch pot and 20 days old after seeding. A bell-jar duster was used to apply each dust at a pressure of 200 mmHg at a rate of 2 kg/10 ares. After the treatment, each pot was enclosed with a metal screen cage in which about 30 adult green rice leafhoppers were released.

[3] = test system: tobacco cutworm; assay: whole plant or invertebrate; assay type: in vivo; conditions: for LC50: 48 h, read-out: LC50 (median lethal concentration); for Relative Efficacy (reference compound: 100): from LC50, tobacco cutworm, reference = racemate with same X
From the text: as §1
(§2) In the following test examples, the "racemate" (conventional product) of each of the compounds of the formula (I) was formulated in the same procedures as in each test example and then used as a reference compound.
Each of the emulsifiable concentrates prepared from the compounds of this invention, (1), (2), (3), (4) and (5) in the procedures described in Formulation Example 1 was diluted with water to a predetermined concentration, and a sticker containing 20% of an alkylphenol polyethylene glycol ether and 12% of a salt of lignin sulfonic acid was added to the solution in an amount of 1 ml per 3,000 ml of the solution. […] Ten 3rd-instar larvae of tobacco cutworm were further immersed in each solution for 10 seconds. The leaves and cutworms were air-dried and placed in each plastic cup having a diameter of 10 cm and a height of 4 cm. 48 hours later, the alive and dead was evaluated to obtain the LC50 (median lethal concentration) (ppm).

[4] = test system: female adult CSMA-strain houseflies; assay: Test Example 2: topical application to thorax, mortality after 24 hours; assay type: in vivo, housefly; conditions: for Relative Efficacy (reference compound: 100): from LD50, housefly, reference = racemate with same X; for LD50 (median lethal dose): topical, 0.5 μl acetone solution to thorax, 24 hours
Experimental: as §2
The compounds of this invention, (1), (2), (3), (4) and (5) were diluted with acetone to a predetermined concentration, and 0.5 μl of each solution was topically applied to thorax of female adult CSMA-strain houseflies with a microsyringe. The flies were placed in a plastic cup having a diameter of 12 cm containing therein cotton absorbent impregnated with 3% sugar water. 24 hours later, the alive and dead was evaluated to determine the LD50 (median lethal dose) (μg/insect).

[5] = test system: harmful insects and/or mites; assay: Insecticidal and/or acaricidal activity of optical isomers (general statement); assay type: in vivo; conditions: Aα-isomer, X = F versus other halogens

| SMILES | damage to mite-released kidney beans [1] | alive and dead evaluation of leafhoppers [2] | LC50 [3] [mg/L] | Relative Efficacy (reference compound: 100) [3] | Relative Efficacy (reference compound: 100) [4] | LD50 (median lethal dose) [4] [μg/insect] | activity compared with other halogen-substituted compounds [5] |
| --- | --- | --- | --- | --- | --- | --- | --- |
| CC(C)[C@H](C(=O)OC(C#N)c1cccc(Oc2ccc(F)cc2)c1)c1ccc(Cl)cc1 (stereo partly shown) [Compound (1)] | little damaged | completely killed | 2.3 (≈ 5.25 µM) | 217 | 216 | 0.019 | – |
| CC(C)[C@H](C(=O)O[C@H](C#N)c1cccc(Oc2ccc(Cl)cc2)c1)c1ccc(Cl)cc1 [Compound (3)] | – | completely killed | 3.9 (≈ 8.58 µM) | 390 | 388 | 0.016 | – |
| CC(C)[C@H](C(=O)O[C@H](C#N)c1cccc(Oc2ccc(F)cc2)c1)c1ccc(Cl)cc1 [Compound (2)] | little damaged | completely killed | 1.2 (≈ 2.74 µM) | 417 | 410 | 0.010 | stronger activity than other halogen-substituted compounds |
| CC(C)[C@H](C(=O)O[C@H](C#N)c1cccc(Oc2ccc(Br)cc2)c1)c1ccc(Cl)cc1 [Compound (5)] | – | completely killed | 4.2 (≈ 8.42 µM) | 476 | 444 | 0.018 | – |
| CC(C)[C@H](C(=O)OC(C#N)c1cccc(Oc2ccc(Br)cc2)c1)c1ccc(Cl)cc1 (stereo partly shown) [Compound (4)] | – | completely killed | 9.5 (≈ 19 µM) | 211 | 229 | 0.035 | – |
| CC(C)C(C(=O)OC(C#N)c1cccc(Oc2ccc(F)cc2)c1)c1ccc(Cl)cc1 (racemic) [Reference Compound (a), reference compound] | – | – | 5 (≈ 11.4 µM) | 100 | 100 | 0.041 | – |
| CC(C)C(C(=O)OC(C#N)c1cccc(Oc2ccc(Cl)cc2)c1)c1ccc(Cl)cc1 (racemic) [(b), reference compound] | – | – | 15.2 (≈ 33.5 µM) | 100 | 100 | 0.062 | – |
| CC(C)C(C(=O)OC(C#N)c1cccc(Oc2ccc(Br)cc2)c1)c1ccc(Cl)cc1 (racemic) [(c), reference compound] | – | – | 20 (≈ 40.1 µM) | 100 | 100 | 0.080 | – |

Reference: patent US4293504A, “Process for preparing optically active α-cyano-3-(4-halogenophenoxy)-benzyl 2-(4-chlorophenyl)isovalerate” (Sumitomo Chemical Company, Limited, priority 1979, dated 1981)
